Conditions: not given

| SMILES | boiling point | log10 vapour pressure (mmHg) | melting point | ready biodegradability | log10 Koa | logP | log10 Koc (L/kg) | log10 Henry constant (atm·m³/mol) |
| --- | --- | --- | --- | --- | --- | --- | --- | --- |
| c1ccc(-c2ccc(-c3ccccc3)cc2)cc1 | 376 °C | -7 | 210 °C | not readily biodegradable |  |  |  |  |
| c1ccc2c(c1)ccc1c2ccc2c3ccccc3ccc21 | 519 °C |  | 368 °C |  |  |  |  |  |
| Brc1c(Br)c(Br)c2c(c1Br)Oc1c(Br)c(Br)c(Br)c(Br)c1O2 |  | -12.5 | 376 °C |  |  |  |  |  |
| Cc1c(F)c(F)c(C(=O)O)c(F)c1F |  |  | 174 °C |  |  |  |  |  |
| COc1cccc(C(C)=O)c1 | 240 °C |  |  |  |  |  |  |  |
| CC(=O)c1ccc(Br)s1 |  |  | 94.5 °C |  |  |  |  |  |
| CCOC(=O)CC(=O)c1ccccc1 |  | -3.39 |  |  |  |  |  |  |
| Cc1ccc(C(=O)O)cc1C |  |  | 165 °C |  |  |  |  |  |
| CCC(C)c1cc([N+](=O)[O-])cc([N+](=O)[O-])c1OC(C)=O (configuration not stated) |  | -3.22 | 26 °C |  |  |  |  |  |
| Cc1cccc(C)c2cc(C(C)C)cc1-2 |  |  | 32.3 °C |  |  |  |  |  |
| O=C=Nc1ccc(Br)cc1 | 226 °C |  |  |  |  |  |  |  |
| C#CC(=O)OCC | 120 °C |  |  |  |  |  |  |  |
| CCC=C(C)CO | 168 °C |  |  |  |  |  |  |  |
| Cc1ncc(CSSCc2cnc(C)c(O)c2CO)c(CO)c1O |  |  | 219 °C |  |  |  |  |  |
| C[C@]12CC[C@H](O)C[C@H]1CC[C@@H]1[C@@H]2C[C@@H](O)[C@]2(C)[C@@H](C3=CC(=O)OC3)CC[C@]12O |  |  | 222 °C |  |  |  |  |  |
| CC[C@H](C)CBr | 122 °C |  |  |  |  |  |  |  |
| COC(C)CC(OC)OC (configuration not stated) | 157 °C |  |  |  |  |  |  |  |
| COCCCNc1nc(NCCCOC)nc(SC)n1 |  |  | 55 °C |  |  |  |  |  |
| c1ccc(-c2c3ccccc3c(-c3ccccc3)c3ccccc23)cc1 |  | -9.84 | 246 °C |  |  |  |  |  |
| CC(=O)c1cccs1 | 214 °C |  | 10.5 °C |  |  |  |  |  |
| Brc1ccc(Oc2cc(Br)c(Br)cc2Br)c(Br)c1 |  | -7.51 |  |  | 11.3 | 7.32 |  |  |
| Cn1cc(-c2ccccc2)c(=O)c(-c2cccc(C(F)(F)F)c2)c1 |  | -7.01 | 154 °C | not readily biodegradable |  |  | 2.85 |  |
| CCN(CC)C(=O)Cl | 186 °C |  | -32 °C |  |  |  |  |  |
| CCc1c(Br)c(Br)c(Br)c(Br)c1Br |  |  | 138 °C | not readily biodegradable |  |  | 4.92 |  |
| Cc1c(F)c(F)c(COC(=O)C2C(/C=C(\Cl)C(F)(F)F)C2(C)C)c(F)c1F (configuration not stated) |  | -4.22 | 44.6 °C |  |  |  |  |  |
| CC1CCOS(=O)O1 (configuration not stated) | 185 °C |  | 5 °C |  |  |  |  |  |
| OCc1ccc(F)cc1 | 210 °C |  | 23 °C |  |  |  |  |  |
| CCCc1ccccn1 | 167 °C |  | 2 °C |  |  |  |  |  |

| SMILES | boiling point | log10 vapour pressure (mmHg) | melting point | ready biodegradability | log10 Koa | logP | log10 Koc (L/kg) | log10 Henry constant (atm·m³/mol) |
| --- | --- | --- | --- | --- | --- | --- | --- | --- |
| Cc1cc(Cl)[nH]n1 | 258 °C |  | 118 °C |  |  |  |  |  |
| Brc1cc(Br)cc(Br)c1 | 271 °C | -2.82 | 123 °C |  |  |  |  |  |
| CCCCC(=O)OCC(=O)[C@H]1[C@H](C)C[C@H]2[C@@H]3C[C@H](F)C4=CC(=O)C=C[C@]4(C)[C@@]3(F)[C@@H](O)C[C@@]21C |  |  | 195 °C |  |  |  |  |  |
| CNC(=O)CC(C)=O |  |  |  | readily biodegradable |  |  |  |  |
| COc1ccc(-c2cc(=O)c3c(O)c(OC)c(O)cc3o2)cc1 |  |  | 221 °C |  |  |  |  |  |
| FC(F)(F)C(Cl)C(F)(F)F | 14.1 °C |  | -120 °C |  |  |  |  |  |
| CCCCCCCCCCCCCCCCBr | 336 °C | -4.31 | 18 °C | readily biodegradable |  |  |  |  |
| CCOC(=O)C(=O)Cl | 137 °C | 0.882 |  |  |  |  |  |  |
| CCC(C)C#N (configuration not stated) | 125 °C |  |  |  |  |  |  |  |
| C=C(Cl)CSC(=S)N(CC)CC |  | -2.66 |  |  |  |  |  |  |
| CC(=O)N1CCOCC1 |  |  | 14.5 °C |  |  |  |  |  |
| CCOc1ccc(N)c(N)c1 | 295 °C |  | 71.5 °C |  |  |  |  |  |
| N#CCCCCCCCCCCC(=O)O |  |  |  | readily biodegradable |  |  |  |  |
| N#Cc1cnc2ccccc2c1 |  |  | 109 °C |  |  |  |  |  |
| O=[N+]([O-])c1ccc(Oc2ccc(N=C=S)cc2)cc1 |  |  | 110 °C |  |  |  |  |  |
| CCCCCCCOC(=O)CCCCCCC | 290 °C |  | -10.6 °C |  |  |  |  |  |
| CCN(CC)C(=O)CC(C)C | 211 °C |  |  |  |  |  |  |  |
| CN(C)C(=O)Nc1cccc(Cl)c1 |  |  |  |  |  |  | 1.79 |  |
| CN(C)[Si](C)(C)C | 86 °C |  |  |  |  |  |  |  |
| C[C@@H]1NC(=O)N[C@@H]1CCCCCC(=O)O |  |  | 157 °C |  |  |  |  |  |
| COc1ccc([N+](=O)[O-])c(OC)c1 |  |  | 76.5 °C |  |  |  |  |  |
| CCN1C[C@]2(COC)CCC(O)[C@]34C1C(O)([C@@H](OC)[C@H]23)C1(O)C[C@H](OC)[C@H]2C[C@@H]4[C@@H]1[C@H]2OC (some centres not stated) |  |  | 214 °C |  |  |  |  |  |
| CNC[C@H](O)c1ccc(O)c(O)c1.O=C(O)[C@H](O)[C@@H](O)C(=O)O |  |  | 150 °C |  |  |  |  |  |
| CCCOC(=O)CCl | 161 °C |  |  |  |  |  |  |  |
| CCCCCCCCCCOC(=O)Cl | 220 °C | -1.59 |  |  |  |  |  |  |
| CCC1CO1 (configuration not stated) | 63.3 °C | 2.26 |  | readily biodegradable |  |  |  |  |
| CNC(=O)N(C)c1nnc(C(C)(C)C)s1 |  | -5.7 |  |  |  |  | 1.83 | -9.92 |

Same assay, conditions: fish

| SMILES | log10 BCF | log10 biotransformation half-life (days) |
| --- | --- | --- |
| CCCCOCCOP(=O)(OCCOCCCC)OCCOCCCC | 0.76 |  |
| Nc1ccc(Cl)cc1Cl | 1.36 | -0.65 |
| c1cc[n+]2c(c1)-c1cccc[n+]1CC2 | 0.76 |  |
| C=C(C)c1ccc(Cl)cc1 | 2.84 | 1.3 |
| Brc1ccc(Oc2cc(Br)c(Br)cc2Br)c(Br)c1 | 6.01 | 1.95 |
| CCc1c(Br)c(Br)c(Br)c(Br)c1Br | 2.52 | 0.02 |
| Brc1cc(Br)cc(Br)c1 | 3.7 | 1.65 |
